Data: patent publication US4948908A, “Organo phosphorus compounds and pesticidal compositions” (priority 1986, dated 1990)

Assay: solubility of the quarternary ammonium salt in solvents
Type: physicochemical
Protocol: Preparation of Phenyl bis[4-NNN-trimethyl-ammonium-iodide-phenylamido]Phosphate, also designated phosphoric-acid-phenyl-ester-bis[4-NNN-trimethyl-ammonium-iodide-phenyl-amide] [drawing 25] The diamine V (Example 1) is dissolved in a mixture of 4:1 acetone:0.5MNaHCO3, and reacted overnight with excess Mel, methyliodide, at room temperature. The reaction mixture is then evaporated, dissolved in water and washed with ethyl acetate to remove impurities. The aqueous phase is then evaporated to dryness and the residue is washed several times with acetone to remove Sodiumiodide obtained as a by-product. The compound obtained is highly hygroscopic. The quarternary ammonium salt is very soluble in water but not in ethanol or acetone. It gives a negative reaction with TNBS.

In the case of C[N+](C)(C)c1ccc(NP(=O)(Nc2ccc([N+](C)(C)C)cc2)Oc2ccccc2)cc1 [Example 3, Phenyl bis[4-NNN-trimethyl-ammonium-iodide-phenylamido]Phosphate], the “solubility in ethanol or acetone” value (ethanol or acetone) is reported as “not” and the solubility in water (water) is reported as “very soluble”.
